Measurements taken from PubChem BioAssay AID1963964 (Molecular Pharmacology Branch, DTP, NCI, 2024).
One block for each compound: values may come before it.

System: 997726-040-R-J2-PDC tumor spheroids, viability
Test: Anticancer human tumor 997726-040-R-J2-PDC patient-derived squamous cell lung carcinoma cell line growth inhibition [PI3K]
Details: spheroids with HUVEC and MSC; for IC50: curve of first compound; for viability, T/C: stronger effect = lower value
How it was run: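 High-throughput combination screen: PI3K inhibitors crossed with targeted small molecules on complex spheroids of tumor cells, HUVEC and MSCs at 37 degrees C, 5% CO2. Top concentration was at or near clinical Cmax (otherwise 10 microM), with half-log decrements.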

[1] = second compound 0.00316 µM, first compound 0.0316 µM
[2] = second compound 0.00316 µM, first compound 0.1 µM
[3] = second compound 0.01 µM, first compound 0.0316 µM
[4] = second compound 0.01 µM, first compound 0.1 µM
[5] = second compound 0.0316 µM, first compound 0.0316 µM
[6] = second compound 0.0316 µM, first compound 0.1 µM
[7] = second compound 0.1 µM, first compound 0.0316 µM
[8] = second compound 0.1 µM, first compound 0.1 µM
[9] = second compound 0.316 µM, first compound 0.0316 µM
[10] = second compound 0.316 µM, first compound 0.1 µM
[11] = second compound 1 µM, first compound 0.0316 µM
[12] = second compound 1 µM, first compound 0.1 µM
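Also: spheroids exposed to compounds for seven days before readout.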

IC50 (second compound 0.00316 µM): 18.2 nM
IC50 (second compound 0.01 µM): 2.97 nM
IC50 (second compound 0.0316 µM): < 0.316 nM
IC50 (second compound 0.1 µM): < 0.316 nM
IC50 (second compound 0.316 µM): < 0.316 nM
IC50 (second compound 1 µM): < 0.316 nM
SMILES: CC(C)n1nc(-c2ccc3oc(N)nc3c2)c2c(N)ncnc21 + COc1c(OCCCN2CCOCC2)ccc2c3n(c(=NC(=O)c4cnc(N)nc4)nc12)CCN3
viability, T/C (second compound 0.00316 µM, first compound 0.000316 µM): 74%
viability, T/C (second compound 0.00316 µM, first compound 0.001 µM): 76.6%
viability, T/C (second compound 0.00316 µM, first compound 0.00316 µM): 70%
viability, T/C (second compound 0.00316 µM, first compound 0.01 µM): 61.1%
viability, T/C [1]: 39.9%
viability, T/C [2]: 16.4%
viability, T/C (second compound 0.01 µM, first compound 0.000316 µM): 57.2%
viability, T/C (second compound 0.01 µM, first compound 0.001 µM): 57.9%
viability, T/C (second compound 0.01 µM, first compound 0.00316 µM): 45.5%
viability, T/C (second compound 0.01 µM, first compound 0.01 µM): 42.2%
viability, T/C [3]: 33.2%
viability, T/C [4]: 13.1%
viability, T/C (second compound 0.0316 µM, first compound 0.000316 µM): 32.4%
viability, T/C (second compound 0.0316 µM, first compound 0.001 µM): 35.5%
viability, T/C (second compound 0.0316 µM, first compound 0.00316 µM): 32.5%
viability, T/C (second compound 0.0316 µM, first compound 0.01 µM): 29.6%
viability, T/C [5]: 23.7%
viability, T/C [6]: 5.54%
viability, T/C (second compound 0.1 µM, first compound 0.000316 µM): 25.5%
viability, T/C (second compound 0.1 µM, first compound 0.001 µM): 22.1%
viability, T/C (second compound 0.1 µM, first compound 0.00316 µM): 21.3%
viability, T/C (second compound 0.1 µM, first compound 0.01 µM): 16.3%
viability, T/C [7]: 9.54%
viability, T/C [8]: 2.12%
viability, T/C (second compound 0.316 µM, first compound 0.000316 µM): 5.5%
viability, T/C (second compound 0.316 µM, first compound 0.001 µM): 4.4%
viability, T/C (second compound 0.316 µM, first compound 0.00316 µM): 4.05%
viability, T/C (second compound 0.316 µM, first compound 0.01 µM): 2.91%
viability, T/C [9]: 1.89%
viability, T/C [10]: 1.02%
viability, T/C (second compound 1 µM, first compound 0.000316 µM): 1.83%
viability, T/C (second compound 1 µM, first compound 0.001 µM): 1.51%
viability, T/C (second compound 1 µM, first compound 0.00316 µM): 1.18%
viability, T/C (second compound 1 µM, first compound 0.01 µM): 1.56%
viability, T/C [11]: 1.91%
viability, T/C [12]: 0.84%

IC50 (second compound 0.00316 µM): 6610 nM
IC50 (second compound 0.01 µM): 5360 nM
IC50 (second compound 0.0316 µM): 31.6 nM
IC50 (second compound 0.1 µM): < 31.6 nM
IC50 (second compound 0.316 µM): < 31.6 nM
IC50 (second compound 1 µM): < 31.6 nM
SMILES: CCCS(=O)(=O)Nc1ccc(F)c(C(=O)c2c[nH]c3ncc(-c4ccc(Cl)cc4)cc23)c1F + COc1c(OCCCN2CCOCC2)ccc2c3n(c(=NC(=O)c4cnc(N)nc4)nc12)CCN3
viability, T/C [1]: 68.1%
viability, T/C [2]: 91.1%
viability, T/C (second compound 0.00316 µM, first compound 0.316 µM): 101%
viability, T/C (second compound 0.00316 µM, first compound 1 µM): 114%
viability, T/C (second compound 0.00316 µM, first compound 3.16 µM): 136%
viability, T/C (second compound 0.00316 µM, first compound 10 µM): 20.7%
viability, T/C [3]: 52.6%
viability, T/C [4]: 70.3%
viability, T/C (second compound 0.01 µM, first compound 0.316 µM): 69.6%
viability, T/C (second compound 0.01 µM, first compound 1 µM): 76%
viability, T/C (second compound 0.01 µM, first compound 3.16 µM): 94%
viability, T/C (second compound 0.01 µM, first compound 10 µM): 23.2%
viability, T/C [5]: 39.5%
viability, T/C [6]: 41.8%
viability, T/C (second compound 0.0316 µM, first compound 0.316 µM): 44.2%
viability, T/C (second compound 0.0316 µM, first compound 1 µM): 49.9%
viability, T/C (second compound 0.0316 µM, first compound 3.16 µM): 57.1%
viability, T/C (second compound 0.0316 µM, first compound 10 µM): 19.6%
viability, T/C [7]: 24%
viability, T/C [8]: 24.6%
viability, T/C (second compound 0.1 µM, first compound 0.316 µM): 25.3%
viability, T/C (second compound 0.1 µM, first compound 1 µM): 28.4%
viability, T/C (second compound 0.1 µM, first compound 3.16 µM): 28%
viability, T/C (second compound 0.1 µM, first compound 10 µM): 16.5%
viability, T/C [9]: 5.93%
viability, T/C [10]: 6.12%
viability, T/C (second compound 0.316 µM, first compound 0.316 µM): 5.74%
viability, T/C (second compound 0.316 µM, first compound 1 µM): 7.01%
viability, T/C (second compound 0.316 µM, first compound 3.16 µM): 8.12%
viability, T/C (second compound 0.316 µM, first compound 10 µM): 7.64%
viability, T/C [11]: 1.54%
viability, T/C [12]: 1.08%
viability, T/C (second compound 1 µM, first compound 0.316 µM): 1.77%
viability, T/C (second compound 1 µM, first compound 1 µM): 1.68%
viability, T/C (second compound 1 µM, first compound 3.16 µM): 2.43%
viability, T/C (second compound 1 µM, first compound 10 µM): 1.82%
